In patent US20210244028A1, “TREATMENT FOR REMOVING ECTOPARASITES FROM FISH” (priority 2018, published 2021):
Values joined by “and” are separate entries in the source; they are usually repeats but may differ in a detail not shown here. Equal values may be shown once.

Tests used:
[1] = system: azamethiphos- and deltamethrin-resistant sea lice; assay: In vitro bath exposure of isolated sea lice (Example 6); conditions: 60 minutes exposure, registered approx. 20 h after end of exposure
Procedure: A trial was performed to ensure there was no cross-resistance between azamethiphos- and deltamethrin-resistant sea lice and neonicotinoids. Both pre-adult and adult stages (mobile stages) of both sexes were used, and they were equally distributed among groups. The sea lice were exposed to imidacloprid for 60 minutes, azamethiphos for 60 minutes and deltamethrin for 30 minutes in one litre baths at a range of concentrations (Tables 6, 7 and 8). The sea lice were transferred to clean aerated seawater after treatment. The temperature of the seawater during the experiment was 12° C., but during exposure the temperature raised to approx. 14° C. in regimes exposed for 60 min. (imidacloprid and azamethiphos) and to 13° C. for the regime exposed in 30 minutes (deltamethrin).
The numbers of live and immobilised (including killed) lice in each regime were registered approximately 20 h after end of exposure. Each louse was individually investigated.

Salmon lice = assay: Bath treatment of lice-infected Atlantic salmon, percent lice removed (Example 7); format: in vivo; conditions: 0.1 mg/l, 30 minutes, duplicate, 3 fish per test
Procedure: To determine the concentration- and time-dependence of imidacloprid treatment in vivo, Atlantic salmon (average of 320.9 g) were challenged with imidacloprid in seawater ([…] salinity) at 12° C. The water level in the tank was lowered and aeration was employed during administration of the active. The salmon louse copepodid culture was counted and adjusted to obtain a target level of around 40 copepodids per fish in the challenge tank at each challenge time point.
Salmon lice on the fish were counted using standard methods. Only lice on the fish's outer surface, not including gills and oral/buccal cavities, were investigated.
Numbers of dissociated lice in tank water or attached to the tank walls were recorded. Lice in the tank water were collected and assessed for ability to attach by suction to a smooth plastic surface immediately after treatment and again after 30-60 minutes (to assess possible revival). […]
To terminate the treatment, the inner compartment with treated fish was lifted to the surface and drained, then fish were transferred directly and without water to a second basin with a lethal overdose of anaesthetic and left until dead. All lice remaining on these fish and lice that fell off in the anaesthetic bath were recorded. […]

**Q.** Which “% effect” value ([1]; 5 ppm) does the source give for `COP(=O)(OC)SCn1c(=O)oc2cc(Cl)cnc21` [azamethiphos] here?
**A.** 0%

**Q.** And the Immobilised ([1]; 5 ppm)?
**A.** 0

**Q.** And the Live ([1]; 5 ppm)?
**A.** 10

**Q.** And the “% effect” value ([1]; 10 ppm)?
**A.** 10%

**Q.** And the Immobilised ([1]; 10 ppm)?
**A.** 1

**Q.** What about the Live ([1]; 10 ppm) of the same compound?
**A.** 9

**Q.** And the “% effect” value ([1]; 15 ppm)?
**A.** 0%

**Q.** What about the Immobilised ([1]; 15 ppm) of the same compound?
**A.** 0

**Q.** And the Live ([1]; 15 ppm)?
**A.** 10

**Q.** What about the “% effect” value ([1]; 20 ppm) of the same compound?
**A.** 10% and 20%

**Q.** What about the Immobilised ([1]; 20 ppm) of the same compound?
**A.** 1 and 2

**Q.** What about the Live ([1]; 20 ppm) of the same compound?
**A.** 9 and 8

**Q.** What about the Live ([1]; 30 ppm) of the same compound?
**A.** 9 and 6

**Q.** What about the “% Removal” value (Salmon lice) of the same compound?
**A.** 3.0^33% and 3.8^52%
